From BindingDB's records for doi:10.1002/cbic.200800704 (Antibiotics Laboratory, 2009)

biological target: Carbonic anhydrase 2 (Homo sapiens, UniProt P00918); test: Inhibition Assay; details: pH 8.4
Experimental: Inhibitory activity of the compounds for CAII was measured and IC50 values were calculated from independent triplicated experiments. Kd values were obtained by ITC analysis.

IC50 [nM] | Kd [nM] | Structure (SMILES)
48 | 29 | NS(=O)(=O)c1ccc(N2CCN(Cc3ccncc3)CC2)cc1 [Piperazine moiety, 3]
72 | 100 | NS(=O)(=O)c1ccc(N2CCN(C(=O)c3ccncc3)CC2)cc1 [Piperazine moiety, 6]
137 | 208 | NS(=O)(=O)c1ccc(N2CCN(CCO)CC2)cc1 [Piperazine moiety, 5]

Further lines, the compound ahead of its results:

Structure (SMILES) | IC50 [nM] | Kd [nM]
NS(=O)(=O)c1ccc(N2CCNCC2)cc1 [Piperazine moiety, 4] | 299 | 426
NS(=O)(=O)c1ccc(F)cc1 [4-Fuloro sulfonamide, C] | 203 | 435
